The values that follow come from publication PMC10280969, “A green leaf volatile, (Z)-3-hexenyl-acetate, mediates differential oviposition by Spodoptera frugiperda on maize and rice” (BMC Biology, 2023).

Common to all, as to experiment: two-electrode voltage clamp, Xenopus oocytes
What all share (type): cell-based
Settings in all cases: 10^-4 M odorant; Ca2+-free Ringer buffer pH 7.6; agonist
(Two-electrode voltage clamp is typically applied to oocytes expressing channels or transporters.)

For one assay, the target named is T1, SfruOR23/ORco (Spodoptera frugiperda, UniProt A0A9R0EA99).
T1 construct: gene LOC118268273; full-length ORF, pT7TS cRNA, Xenopus laevis oocytes, with ORco; with Odorant receptor coreceptor
T1 sequence (A0A9R0EA99 1-429): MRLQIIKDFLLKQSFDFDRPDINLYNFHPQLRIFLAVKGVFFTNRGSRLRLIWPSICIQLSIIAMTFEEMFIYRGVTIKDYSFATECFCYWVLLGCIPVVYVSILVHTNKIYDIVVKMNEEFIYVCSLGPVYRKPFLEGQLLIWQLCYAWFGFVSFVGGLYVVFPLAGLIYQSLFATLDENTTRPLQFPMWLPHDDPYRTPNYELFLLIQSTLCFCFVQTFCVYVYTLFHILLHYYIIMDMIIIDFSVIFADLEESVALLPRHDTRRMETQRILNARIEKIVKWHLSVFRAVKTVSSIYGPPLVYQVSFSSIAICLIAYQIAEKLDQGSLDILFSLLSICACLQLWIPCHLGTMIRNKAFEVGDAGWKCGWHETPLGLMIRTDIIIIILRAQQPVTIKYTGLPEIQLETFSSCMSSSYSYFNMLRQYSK
T1 sequence (A0A9F1UC78 1-473 partner): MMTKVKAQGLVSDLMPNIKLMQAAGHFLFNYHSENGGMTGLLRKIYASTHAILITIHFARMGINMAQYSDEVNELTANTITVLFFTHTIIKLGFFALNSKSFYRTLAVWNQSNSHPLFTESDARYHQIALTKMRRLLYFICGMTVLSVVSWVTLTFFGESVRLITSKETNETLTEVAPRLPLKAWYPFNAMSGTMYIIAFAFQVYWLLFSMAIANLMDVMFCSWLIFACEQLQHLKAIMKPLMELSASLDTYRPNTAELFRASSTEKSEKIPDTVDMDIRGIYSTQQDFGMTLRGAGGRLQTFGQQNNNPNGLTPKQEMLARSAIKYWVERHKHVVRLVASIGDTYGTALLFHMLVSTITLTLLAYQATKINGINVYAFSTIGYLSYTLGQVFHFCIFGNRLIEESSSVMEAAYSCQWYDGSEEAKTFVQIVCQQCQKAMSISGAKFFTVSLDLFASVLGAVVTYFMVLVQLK

For another assay, the target named is T2, SfruOR9 (Spodoptera frugiperda, UniProt A0A9R0EEX7).
T2 construct: gene LOC118261888; full-length ORF, pT7TS cRNA, Xenopus laevis oocytes; with Odorant receptor coreceptor
T2 sequence (A0A9R0EEX7 1-400): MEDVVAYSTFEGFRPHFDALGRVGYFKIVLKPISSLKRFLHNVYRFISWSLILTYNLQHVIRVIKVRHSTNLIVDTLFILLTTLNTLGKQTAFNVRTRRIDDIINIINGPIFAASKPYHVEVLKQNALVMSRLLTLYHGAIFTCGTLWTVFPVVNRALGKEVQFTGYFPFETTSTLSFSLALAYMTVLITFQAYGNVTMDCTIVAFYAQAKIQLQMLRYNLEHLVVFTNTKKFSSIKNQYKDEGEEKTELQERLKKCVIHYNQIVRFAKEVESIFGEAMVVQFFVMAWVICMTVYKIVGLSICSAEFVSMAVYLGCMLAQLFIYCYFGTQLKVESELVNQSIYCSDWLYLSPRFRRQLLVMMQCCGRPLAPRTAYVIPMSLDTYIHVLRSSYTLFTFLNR
T2 sequence (A0A9F1UC78 1-473 partner): T1 sequence (A0A9F1UC78 1-473 partner)

Another assay concerns the target T3, SfruOR5 (Spodoptera frugiperda, UniProt A0A9R0ELQ8).
T3 construct: gene LOC118270580; full-length ORF, pT7TS cRNA, Xenopus laevis oocytes; with Odorant receptor coreceptor
T3 sequence (A0A9R0ELQ8 1-379): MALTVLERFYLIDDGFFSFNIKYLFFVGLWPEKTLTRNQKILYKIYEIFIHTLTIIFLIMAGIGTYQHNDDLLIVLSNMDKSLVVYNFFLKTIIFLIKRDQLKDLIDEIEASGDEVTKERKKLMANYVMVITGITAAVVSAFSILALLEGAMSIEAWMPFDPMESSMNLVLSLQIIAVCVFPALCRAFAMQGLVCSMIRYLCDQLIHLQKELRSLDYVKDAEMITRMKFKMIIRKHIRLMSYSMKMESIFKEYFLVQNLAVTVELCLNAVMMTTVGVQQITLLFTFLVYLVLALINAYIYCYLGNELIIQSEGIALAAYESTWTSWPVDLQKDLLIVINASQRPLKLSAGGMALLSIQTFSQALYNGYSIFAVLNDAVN
T3 sequence (A0A9F1UC78 1-473 partner): T1 sequence (A0A9F1UC78 1-473 partner)

In another assay the target is T4, SfruOR17 (Spodoptera frugiperda, UniProt A0A9R0D2T2).
T4 construct: gene LOC118267896; full-length ORF, pT7TS cRNA, Xenopus laevis oocytes; with Odorant receptor coreceptor
T4 sequence (A0A9R0D2T2 1-395): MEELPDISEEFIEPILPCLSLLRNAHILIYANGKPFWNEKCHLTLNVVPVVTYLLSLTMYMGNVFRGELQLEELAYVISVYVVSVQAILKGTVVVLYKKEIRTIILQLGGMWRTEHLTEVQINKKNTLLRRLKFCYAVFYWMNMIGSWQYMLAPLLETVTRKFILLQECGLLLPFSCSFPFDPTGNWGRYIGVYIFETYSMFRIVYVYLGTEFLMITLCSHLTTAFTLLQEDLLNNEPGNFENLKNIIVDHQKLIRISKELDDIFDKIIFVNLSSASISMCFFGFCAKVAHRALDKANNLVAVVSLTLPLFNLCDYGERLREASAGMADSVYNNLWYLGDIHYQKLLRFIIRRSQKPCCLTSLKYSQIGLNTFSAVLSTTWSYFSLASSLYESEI
T4 sequence (A0A9F1UC78 1-473 partner): T1 sequence (A0A9F1UC78 1-473 partner)

`CC/C=C\CCOC(C)=O` [(Z)-3-hexenyl-acetate]: the inward current response result on SfruOR23/ORco was “with SfruOR23/ORco showing the highest response”; on SfruOR9, “SfruOR5, SfruOR9, SfruOR17, SfruOR23, and SfruOR25 responded to the oviposition stimulant (Z)-3-hexenyl-acetate”; at SfruOR5, “SfruOR5, SfruOR9, SfruOR17, SfruOR23, and SfruOR25 responded to the oviposition stimulant (Z)-3-hexenyl-acetate”; on SfruOR17, “SfruOR5, SfruOR9, SfruOR17, SfruOR23, and SfruOR25 responded to the oviposition stimulant (Z)-3-hexenyl-acetate”.
